The compounds below were run against T1, Human recombinant CD38 (Homo sapiens, UniProt P28907) (assay: CD38 hydrolase inhibition assay). Settings: glycohydrolase activity, 0.2 ng/μL CD38, 100 μM ε-NAD substrate, fluorescence excitation 300 nm / emission 410 nm.
T1 construct: purchased BPS Bioscience
T1 sequence (P28907 1-300): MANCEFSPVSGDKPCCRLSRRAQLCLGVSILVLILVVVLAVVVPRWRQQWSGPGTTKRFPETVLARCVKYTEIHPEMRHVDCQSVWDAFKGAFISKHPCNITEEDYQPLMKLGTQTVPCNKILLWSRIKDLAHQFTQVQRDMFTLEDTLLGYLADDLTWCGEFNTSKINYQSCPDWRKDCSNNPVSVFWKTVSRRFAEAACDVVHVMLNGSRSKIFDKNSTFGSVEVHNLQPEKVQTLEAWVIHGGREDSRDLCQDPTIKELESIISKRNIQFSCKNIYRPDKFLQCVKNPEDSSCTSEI
Type: biochemical
Protocol: Example 22: CD38 Hydrolase Inhibition Assay
The CD38 hydrolase inhibition assay measures the glycohydrolase activity of CD38, using an NAD analog as substrate and measuring formation of a fluorescent ADP ribose analog. A 4× buffer was prepared with 1M sucrose and 160 mM Tris-HCl at pH 7.4, for a final assay concentration of 250 mM sucrose and 40 mM Tris-HCl. The 4× solution was kept at 4° C. and warmed to room temperature before use. Tween20 was added to 1× buffer for a final concentration of 0.05%. Human recombinant CD38 (BPS Bioscience) was diluted to 0.4 ng/μL in 1× buffer and 12.5 μL added to each plate well. Inhibitors were added and DMSO content was normalized to the highest concentration on the plate, with an upper limit of 0.5%. Finally, ε-NAD was diluted to 200 μM in 1× buffer and 12.5 μL added to each plate well, for final well concentrations of 0.2 ng/μL CD38 and 100 μM ε-NAD. Plates were covered and incubated at room temperature for […], and then read on a plate reader using excitation 300 nm and emission 410 nm. […] IC50s for test compounds were determined either using GraphPad Prism software v9.3, or CDD Vault.

Compound | IC50 [nM]
COCCOc1cc(C(=O)Nc2cncc(Cl)c2)cc(-n2ccnc2)c1 [Compound 106, N-(5-chloropyridin-3-yl)-3-(imidazol-1-yl)-5-(2-methoxyethoxy) benzamide] | < 100
CN(C)CCOc1cc(C(=O)Nc2ccnc(C(F)(F)F)c2)cc(-n2ccnc2)c1 [Compound 107, 3-[2-(dimethylamino)ethoxy]-5-(imidazol-1-yl)-N-[2-(trifluoromethyl)pyridin-4-yl]benzamide] | < 100
COCCOc1cc(C(=O)Nc2ccc3cn[nH]c3c2)cc(-n2ccnc2)c1 [Compound 109, 3-(imidazol-1-yl)-N-(1H-indazol-6-yl)-5-(2-methoxyethoxy) benzamide] | < 100
COCCOc1cc(C(=O)Nc2ccc(F)c(Cl)c2)cc(-n2ccnc2)c1 [Compound 111, N-(3-chloro-4-fluorophenyl)-3-(imidazol-1-yl)-5-(2-methoxyethoxy)benzamide] | < 100
COCCOc1cc(C(=O)Nc2ccc(C(F)(F)F)nc2)cc(-n2ccnc2)c1 [Compound 112, 3-(imidazol-1-yl)-5-(2-methoxyethoxy)-N-[6-(trifluoromethyl)pyridin-3-yl]benzamide] | < 100
COCCOc1cc(-n2ccnc2)cc(C(=O)Nc2ccnc(C(F)(F)F)c2)c1Cl [Compound 113] | > 1000
COc1cc(C(=O)Nc2ccnc(C(F)(F)F)c2)cc(-n2ccnc2)c1 [Compound 115, 3-(imidazol-1-yl)-5-methoxy-N-[2-(trifluoromethyl)pyridin-4-yl]benzamide] | < 100
COCCOc1cc(C(=O)Nc2ccnc(C(F)(F)F)c2)cc(-c2cncs2)c1 [Compound 116, 3-(2-methoxyethoxy)-5-(1,3-thiazol-5-yl)-N-[2-(trifluoromethyl)pyridin-4-yl]benzamide] | < 100
COCCOc1cc(-n2ccnc2)cc(C(=O)Nc2ccnc(C(F)(F)F)c2)c1F [Compound 117, 2-fluoro-5-(imidazol-1-yl)-3-(2-methoxyethoxy)-N-[2-(trifluoromethyl)pyridin-4-yl]benzamide] | 100 to 1000
COCCOc1cc(C(=O)Nc2ccnc(C(F)(F)F)c2)cc(-n2cncc2CO)c1 [Compound 118] | 100 to 1000
COCCOc1cc(C(=O)Nc2ccnc(C(F)(F)F)c2)cc(-c2cccnc2)c1 [Compound 120, 3-(2-methoxyethoxy)-5-(pyridin-3-yl)-N-[2-(trifluoromethyl)pyridin-4-yl]benzamide] | > 1000
COCCOc1cc(C(=O)Nc2ccc3[nH]ncc3c2)cc(-n2ccnc2)c1 [Compound 126, 3-(imidazol-1-yl)-N-(1H-indazol-5-yl)-5-(2-methoxyethoxy) benzamide] | < 100
COCCOc1cc(C(=O)Nc2ccc3[nH]cnc3c2)cc(-n2ccnc2)c1 [Compound 127, N-(1H-benzo[d]imidazol-6-yl)-3-(1H-imidazol-1-yl)-5-(2-methoxyethoxy)benzamide] | < 100
COCCOc1cc(C(=O)Nc2ccc3nccnc3c2)cc(-n2ccnc2)c1 [Compound 128, 3-(imidazol-1-yl)-5-(2-methoxyethoxy)-N-(quinoxalin-6-yl) benzamide] | < 100
